For data set [1], the target named is T1, CYP2C19 (Homo sapiens, UniProt P33261). The data set is described as follows: in vitro. As to conditions: microsomes.
The target of data set [2] is T1, CYP2C19. The experiment in a line: S-mephenytoin […]'-hydroxylation inhibition in individual human liver microsomes at […] fluvoxamine, LC-MS/MS. In kind it is cell-based. Also noted: human liver microsomes.

SMILES strings stand for the structures.

T1 sequence (P33261 whole entry): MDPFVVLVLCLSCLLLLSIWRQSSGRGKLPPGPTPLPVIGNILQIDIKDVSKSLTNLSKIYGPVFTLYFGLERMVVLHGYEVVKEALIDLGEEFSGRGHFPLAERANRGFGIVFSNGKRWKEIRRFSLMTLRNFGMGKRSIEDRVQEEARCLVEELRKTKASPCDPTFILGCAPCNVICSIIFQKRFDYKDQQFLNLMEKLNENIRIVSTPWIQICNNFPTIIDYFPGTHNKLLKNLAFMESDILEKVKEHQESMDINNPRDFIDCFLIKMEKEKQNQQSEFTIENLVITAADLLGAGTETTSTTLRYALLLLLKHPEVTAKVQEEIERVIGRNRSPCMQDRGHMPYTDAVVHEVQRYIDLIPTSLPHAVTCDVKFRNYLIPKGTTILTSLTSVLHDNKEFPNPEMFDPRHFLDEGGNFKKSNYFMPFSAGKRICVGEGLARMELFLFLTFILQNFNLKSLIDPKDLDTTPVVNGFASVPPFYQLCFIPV

For the molecule `COc1ccc2[nH]c([S+]([O-])Cc3ncc(C)c(OC)c3C)nc2c1` (centres unmarked) [omeprazole], on CYP2C19 [1], the KI (inactivation) was 4.47 ± 1.8 µM.

`COCCCC/C(=N\OCCN)c1ccc(C(F)(F)F)cc1` [fluvoxamine] registered an inhibition at 1 µM on CYP2C19 [2] of 85%.

In general, inhibition refers to the drop in the measured response relative to a control, in per cent. Low values mean little suppression, high ones strong suppression.

Source of the values: paper PMC10285291, “The impact of CYP2C19 genotype on phenoconversion by concomitant medication” (Frontiers in Pharmacology, 2023).
